Reference: publication PMC11259064, “Enhanced binding of guanylated poly(A) RNA by the LaM domain of LARP1” (RNA Biology, 2024)
Where “and” joins values, the source holds several entries; their conditions need not be identical. Equal entries are not always repeated.

Columns and labels:
[1] = target: T1, human LARP1 LaM domain (residues 323–410) (Homo sapiens, UniProt Q6PKG0); assay: NMR titration of single nucleotides into 15N-labelled LARP1 (323-410), chemical shift changes; format: binding; settings: for Kd: 0.1 mM 15N-LARP1 (323-410), 10 mM MES pH 6.3, 100 mM NaCl, 25°C, fit accounts for bound ligand, two nucleotide binding sites, read-out: Kd, binding affinity estimated from chemical shift change (I364 amide) as a function of nucleotide concentration
T1 construct: human LARP1 LaM domain (residues 323–410); made in house; host or cells: E. coli
Description: We carried out NMR titrations with single nucleotides binding to^15N-labelled LARP1 LaM to isolate the individual nucleotide interactions (Figure 1A). The addition of nucleotides caused spectral changes similar to those observed with the hexamer A6 but with smaller shifts and fewer signals affected (Suppl. Figure S1). […] The signals with the largest changes were the amide of Ile364 and side chain amides of Gln333.
At 200 µM, 5´-GMP shifted the Gln333 signal twice as much as 5´-AMP. […] We used the size of the chemical shift change as a function of nucleotide concentration to estimate binding affinities (Figure 1C). […] This had the advantage that it also provided an estimate of the binding stoichiometry. For 5´-GMP, the stoichiometry was measured to be 2.04 with an affinity of 40 µM. […] This is at odds with the affinities of oligonucleotides measured by isothermal titration calorimetry (ITC).
NMR samples were exchanged into 10 mM MES pH 6.3, 100 mM NaCl, 1 mM TCEP. For NMR titrations, nucleotides were added to 0.1 mM^15N-labelled LARP1 (323–410) to final molar ratios of 5:1. All NMR experiments were performed at 25°C using a Bruker 600 MHz spectrometer. NMR spectra were processed using NMRPipe and analysed with SPARKY [51]. Binding affinities were measured by fitting the observed chemical shift changes accounting for bound ligand with a stoichiometry of two nucleotide binding sites.

[2] = target: T2, LARP1 323-410 Q333A (Homo sapiens, UniProt Q6PKG0); assay: ITC of RNA ligands binding LARP1 323-410 Q333A; settings: Q333A mutant; LaM 30 (cell), RNA 300-600 (syringe)
T2 construct: ITC Data Collection and Analysis for LARP1 323-410 Q333A; His-tag; made in house; host or cells: E. coli
Description: (§1) ITC experiments were performed on the VP-ITC titration calorimeter (Malvern Instruments Ltd) except where noted. The syringe was loaded with 300 µM RNA sample, while the sample cell contained 20–30 µM LARP1 (323–410) sample. All experiments were carried out at 20°C with 29 injections of 10 µl. Results were analysed using ORIGIN software (MicroCal) and fitted to a binding model with a single set of identical sites, except where noted.
(§2) Table S3. ITC Data Collection and Analysis for LARP1 323-410 Q333A
(§3) RNA Kd, nM relative to DH, kcal mol-1 DS, cal mol-1 K-1 Conc., µM
(§4) 1Data acquired on iTC200 (Malvern Instruments Ltd).

[3] = target: T3, LARP1 323-410 Q333A (Homo sapiens, UniProt Q6PKG0, Q410A); assay: ITC of RNA ligands binding LARP1 323-410 Q333A; settings: Q333A mutant
T3 construct: ITC Data Collection and Analysis for LARP1 323-410 Q333A; His-tag; made in house; host or cells: E. coli
Description: as §1, §2, §3, §4

[4] = target: T1, human LARP1 LaM domain (residues 323–410); assay: Isothermal titration calorimetry (ITC) of RNA ligands binding LARP1 (323-410); settings: for Rel. aff. (affinity relative to AAAAAA): Figure 2B, higher = tighter binding than A6; for binding to the LaM domain by ITC (in words): LaM 40 μM in cell, cyclic dinucleotide 730-860 μM in syringe
Description: as §1, with “The syringe was loaded with 300 µM RNA sample, while the sample cell contained 20–30 µM LARP1 (323–410) sample.” left out

[5] = target: T1, human LARP1 LaM domain (residues 323–410); settings: ITC of RNA oligonucleotides; cited from earlier work
[6] = ITC, 20°C, LaM 20-30 µM in cell, RNA 300 µM in syringe, single set of identical sites, read-out: Kd
[7] = ITC, 20°C, LaM in cell, RNA in syringe
[8] = Table S1, LaM in cell, RNA in syringe
[9] = ITC, 20°C, LaM in cell, RNA in syringe, read-out: Kd
[10] = reversed titration: RNA 15 (cell), LaM 300 (syringe)

Compound: Nc1ncnc2c1ncn2[C@@H]1O[C@H](COP(=O)(O)O)[C@@H](OP(=O)(O)O)[C@H]1O [3',5'-ADP, 3´,5´-ADP]
- Gln333 signal change (in words) ([1]; NMR titration): broadened the Gln333 signal beyond detection
- Ile364 chemical shift change (in words) ([1]; NMR titration): small shift

Compound: 5´-APAPAPAPAPG-3´ [AAAAAG]
- Kd [2]: 19 ± 2 µM
- ΔH [3]: -27.8 kcal/mol
- ΔS [3]: -73.2 cal mol-1 K-1
- Rel. aff. (affinity relative to AAAAAA) [4]: 1.9
- Kd [4, 6]: 0.13 ± 0.02 µM
- ΔH [4, 7]: -27.5 kcal/mol
- ΔS [4, 7]: -62.3 cal mol^-1 K^-1

Compound: 5´-UPUPUPUPUPU-3´ [UUUUUU]
- fold weaker binding affinity than A6 [5]: 11 fold
- Kd [2]: 100 ± 30 µM
- ΔH [3]: -11.0 kcal/mol
- ΔS [3]: -19.2 cal mol-1 K-1
- Kd [4, 6]: 1.8 ± 0.1 µM
- ΔH [4, 7]: -21.4 kcal/mol
- ΔS [4, 7]: -46.6 cal mol^-1 K^-1
- Affinity relative to A6 [4, 8]: 7.2

Compound: 5´-APG-3´ [AG]
- ΔH [4, 7]: -23.9 kcal/mol
- ΔS [4, 7]: -56.2 cal mol^-1 K^-1
- Kd [4, 9]: 3.1 µM and ~3 µM
- Affinity relative to A6 [4, 8]: 12.4

Compound: Nc1nc2c(ncn2[C@@H]2O[C@H](COP(=O)(O)O)[C@@H](O)[C@H]2O)c(=O)[nH]1 [5'-GMP, 5´-GMP]
- Kd [1]: 40 µM
- shift of the Gln333 signal relative to 5´-AMP ([1]; at 200 µM nucleotide): twice as much
- binding stoichiometry ([1]; from fit of NMR chemical shift changes): 2.04

Compound: Nc1nc2c(ncn2[C@@H]2O[C@@H]3COP(=O)(O)O[C@H]4[C@@H](O)[C@H](n5cnc6c(N)ncnc65)O[C@@H]4COP(=O)(O)O[C@H]3[C@H]2O)c(=O)[nH]1 [3',3'-cGAMP, 3‘,3’-cGAMP]
- Kd [4]: 0.7 ± 0.3 µM
- binding to the LaM domain by ITC (in words) [4]: sub-micromolar affinity
- Affinity relative to A6 (site 1) ([4]; Table S1): 2.8
- Affinity relative to A6 (site 2) ([4]; Table S1): 440
- ΔH (site 1) ([4]; Table S1): 0 kcal/mol
- ΔH (site 2) ([4]; Table S1): 4.8 kcal/mol
- ΔS (site 1) ([4]; Table S1): 28.3 cal mol-1 K-1
- ΔS (site 2) ([4]; Table S1): 34.4 cal mol-1 K-1
- Kd ([4]; read-out: Kd2, second site, fit with two independent sets of sites, LaM 40 μM + ligand 730-750 μM): 110 µM
- Kd ([4]; read-out: Kd (site 2), Table S1, LaM 40 (cell), ligand 730-750 (syringe)): > 10 µM

Compound: 5´-APAPAPAPAPA-3´ [AAAAAA]
- Rel. aff. (affinity relative to AAAAAA) [4]: 1.0
- Kd [4, 6]: 0.25 µM
- ΔH [4, 7]: -19.9 kcal/mol
- ΔS [4, 7]: -37.6 cal mol^-1 K^-1
- Affinity relative to A6 [4, 8]: 1

Compound: 5´-APAPAPAPGPA-3´ [AAAAGA]
- Kd [2]: 10 ± 6 µM
- ΔH [3]: -10.2 kcal/mol
- ΔS [3]: -11.9 cal mol-1 K-1
- Rel. aff. (affinity relative to AAAAAA) [4]: 3.2
- ΔH [4, 7]: -29.5 kcal/mol
- ΔS [4, 7]: -68.0 cal mol^-1 K^-1
- Affinity relative to A6 [4, 8]: 0.32

Compound: 5´-APAPAPAPAPSA-3´ [(SP)-AAAAAPSA]
- ΔH [4, 7]: -23.1 kcal/mol
- ΔS [4, 7]: -57.1 cal mol^-1 K^-1
- Kd [4, 9]: 17 µM
- fold lower affinity of the (SP)-phosphorothioate ([4]; ITC, Figure 5D, compared with the (RP)-phosphorothioate): 60 fold
- Affinity relative to A6 [4, 8]: 68

Compound: Nc1nc2c(ncn2[C@@H]2O[C@@H]3CO[P@](=O)(O)O[C@H]4[C@@H](O)[C@H](n5cnc6c(=O)[nH]c(N)nc65)O[C@@H]4CO[P@](=O)(O)O[C@H]3[C@H]2O)c(=O)[nH]1 [cyclic-di-GMP, Cyclic-di-GMP]
- binding to the LaM domain by ITC (in words) [4]: sub-micromolar affinity
- Affinity relative to A6 (site 1) ([4]; Table S1): 1.2
- Affinity relative to A6 (site 2) ([4]; Table S1): 220
- ΔH (site 1) ([4]; Table S1): 0 kcal/mol
- ΔH (site 2) ([4]; Table S1): 2.0 kcal/mol
- ΔS (site 1) ([4]; Table S1): 29.8 cal mol-1 K-1
- ΔS (site 2) ([4]; Table S1): 26.5 cal mol-1 K-1
- Kd ([4]; Table S1, LaM 40 (cell), ligand 730-750 (syringe), read-out: Kd (site 1)): 0.3 ± 0.3 µM
- Kd ([4]; Table S1, LaM 40 (cell), ligand 730-750 (syringe), read-out: Kd (site 2)): > 10 µM
- Kd ([4]; second site, fit with two independent sets of sites, LaM 40 μM + ligand 730-750 μM, read-out: Kd2): 54 µM

Compound: Nc1ncnc2c1ncn2[C@@H]1O[C@H](CO)[C@@H](OP(=O)(O)O)[C@H]1O [3'-AMP, 3´-AMP]
- Ile364 chemical shift change (in words) ([1]; NMR titration): not appreciably shifted
- shift of the Ile364 peak, fold smaller than with 5´-AMP ([1]; NMR titration): 30 fold

Compound: Nc1ncnc2c1ncn2[C@@H]1O[C@H](COP(=O)(O)O)[C@@H](O)[C@H]1O [5'-AMP, 5´-AMP]
- Kd [1]: 130 µM

Compound: 5´-APAPAPGPAPA-3´ [AAAGAA]
- Rel. aff. (affinity relative to AAAAAA) [4]: 1.8
- Kd [4, 6]: 0.14 ± 0.02 µM
- ΔH [4, 7]: -27.7 kcal/mol
- ΔS [4, 7]: -63.2 cal mol^-1 K^-1
- Affinity relative to A6 [4, 8]: 0.56

Compound: 5´-GPG-3´ [GG]
- Kd ([4]; ITC, 20°C, LaM 20-30 µM in cell, RNA 300 µM in syringe, single set of identical sites): not fitted
- Kd [4, 7]: Not fittable
- Affinity relative to A6 ([4]; Table S1, reversed titration: RNA 15 (cell), LaM 300 (syringe)): 11.2
- Kd ([4]; reversed titration: GG (15 µM) in cell + LaM (300 µM) in syringe, read-out: Kd): 2.8 µM and ~3 µM
- ΔH [4, 10]: -34.1 kcal/mol
- ΔS [4, 10]: -91.1 cal mol-1 K-1

Compound: 5´-APAPAPAPAPSA-3´ [(RP)-AAAAAPSA]
- Kd [4, 6]: 0.29 µM
- ΔH [4, 7]: -19.4 kcal/mol
- ΔS [4, 7]: -36.2 cal mol^-1 K^-1
- Affinity relative to A6 [4, 8]: 1.16
